Results: patent publication US20110053773A1, “METHODS OF IMPROVING NUTRITIONAL VALUE OF PLANTS” (UNIVERSITY OF TENNESSEE RESEARCH FOUNDATION, priority 2009, published 2011)

Key:
[1] = test system: sweet corn variety 'Incredible'; assay: Sugar and key antioxidant content of sweet corn (Example 1, Table 15); assay type: in vivo, Zea mays var. rugosa; conditions: rates g ai/ha: Nicosulfuron 35, Mesotrione 105, Topramezone 18, Isoxadifen-ethyl 13, all incl. treated check with atrazine 560 g ai/ha + 1% v/v crop oil concentrate
From the text: Herbicide treatments were applied in a water carrier at 23 gallons of solution per acre on a field site near Knoxville, Tenn. and Painter, Va. […] All treatments included a PRE application of atrazine plus metolachlor in order to maintain weed free conditions. In addition, all POST treatments (including the treated check) included atrazine at 560 g ai/ha and crop oil concentrate at 1% v/v. […] Sweet corn was harvested from the center two rows of each four row plot and weighed in the husk.

[2] = test system: sweet corn (Zea mays var. rugosa) cultivar 'Incredible'; assay: Content analysis of sweet corn ears: crude protein, amino acids, detergent fiber, fatty acids, minerals (Example 1); assay type: in vivo; conditions: POST at b59 rates; every treatment incl. check also got atrazine 560 g ai/ha + COC 1% v/v; relative to treated check (atrazine), check=0
From the text: Herbicide treatments were applied in a water carrier at 23 gallons of solution per acre on a field site near Knoxville, Tenn. and Painter, Va. Treatments include the following: 1) nicosulfuron at 35 g ai/ha (Accent); 2) mesotrione at 105 g ai/ha (Callisto); 3) nicosulfuron at 35 g ai/ha+mesotrione at 105 g ai/ha (Callisto+Accent); 4) tembotrione at 92 g ai/ha+isoxadifen-ethyl at 46 g ai/ha (Laudis); 5) topramezone at 15 g ai/ha (Impact); 6) nicosulfuron at 35 g ai/ha+isoxadifen-ethyl at 9 g ai/ha (Accent Q); 7) nicosulfuron at 35 g ai/ha+isoxadifen-ethyl at 9 g ai/ha+topramezone at 15 g ai/ha (Accent Q+Impact); 8) nicosulfuron 35 g ai/ha+isoxadifen-ethyl at 9 g ai/ha+mesotrione at 105 g ai/ha (Accent Q+Callisto); 9) treated check (atrazine or Aatrex). All treatments included a PRE application of atrazine plus metolachlor in order to maintain weed free conditions. In addition, all POST treatments (including the treated check) included atrazine at 560 g ai/ha and crop oil concentrate at 1% v/v. […] Sweet corn was harvested from the center two rows of each four row plot and weighed in the husk.

[3] = test system: basil 'Genovese'; assay: Content analysis of basil: protein, minerals (Example 4, Tables 10-11); assay type: in vivo; conditions: 28 DA-A, rates g ai/ha: chlroprifos 3370, chlorothalonil 7900, paclobutrazol 9.7, mepiquat-chloride 37, Isoxadifen 16, Napthalic anhydride 527, + NIS 0.25 % v/v
Experimental: Greenhouse and laboratory studies were conducted to ascertain the tolerance and nutritional quality differences following postemergence applications of the insecticide chlorpyrifos, the fungicide chlorothalonil, the PGRs mepiquat-chloride and paclobutrazol, and the safeners napthalic anhydride and isoxadifen-ethyl on kale ‘Red Russian’ and basil ‘Genovese’. Visual injury was rated based on general phytotoxicity, chlorosis, and visual stunting and each measurement was based on a percent scale from 0 to 100 where 0 equals no visual response and 100 equals complete plant death. Kale and basil were both harvested approximately 4 weeks after treatments and plants were pooled over replicates for content analysis of crude protein, crude amino acid content, acid detergent fiber, neutral detergent fiber, total fatty acids, and/or key mineral content (including Na, Ca, P, Mg, K, Fe, Mn, Zn, and Cu). In addition, the amounts of key individual amino acids (aspartic acid, threonine, glutamic acid, proline, glycine, cysteine, valine, leucine, isoleucine, methionine, and lysine) and composite classifications of fatty acid (saturated fatty acids, monounsaturated fatty acids, polyunsaturated fatty acids) were also analyzed from these sub-samples for kale (Tables 10-14).

In the case of `COc1cc(OC)nc(NC(=O)NS(=O)(=O)c2ncccc2C(=O)N(C)C)n1` [Nicosulfuron*ACCENT, nicosulfuron], the “Fructose, percent increase” value [1] is reported as 48%, the “Gamma-tocopherol, percent increase” value [1] is reported as 1% and the “Glucose, percent increase” value [1] is reported as 35%. For the same compound, the “Lutein, percent increase” value [1] was 9%, the “Maltose, percent increase” value [1] was 23% and the “Sucrose, percent increase” value [1] was −4%. For the same compound, the “Total Sugars, percent increase” value [1] was 16%, the “Zeaxanthin, percent increase” value [1] was 9% and the “antheraxanthin, percent increase” value [1] was 15%. The “Acid DF” value [2] was 9 % of check, the Alanine [2] was 1 % of check and the “Amino Acid” value [2] was −1 % of check. For the same compound, the Aspartic ac [2] was −4 % of check, the Cysteine [2] was 0 % of check and the Glutamic ac [2] was −2 % of check. For the same compound, the Glycine [2] was −4 % of check, the Isoleucine [2] was 0 % of check and the Leucine [2] was 0 % of check. The Lysine [2] was 1 % of check, the Methionine [2] was 0 % of check and the “Neutral DF” value [2] was 4 % of check. For the same compound, the Proline [2] was −7 % of check, the Protein [2] was 7 % of check and the Threonine [2] was 2 % of check. The Valine [2] was 0 % of check, the calcium [2] was 0 % of check and the copper [2] was 0 % of check. For the same compound, the iron [2] was 14 % of check, the magnesium [2] was 14 % of check and the manganese [2] was 33 % of check. For the same compound, the mon fattyac [2] was 15 % of check, the phosphorous [2] was 6 % of check and the polyfattyac [2] was 12 % of check. The potassium [2] was 1 % of check, the sat fattyac [2] was 12 % of check and the sodium [2] was 21 % of check. For the same compound, the tot fattyac [2] was 13 % of check and the zinc [2] was 2 % of check.

In the case of `Cc1c(C(=O)c2cnn(C)c2O)ccc(S(C)(=O)=O)c1C1=NOCC1` [Topramezone*IMPACT, topramezone], the “Fructose, percent increase” value [1] is reported as 63%, the “Gamma-tocopherol, percent increase” value [1] is reported as 8% and the “Glucose, percent increase” value [1] is reported as 40%. The “Lutein, percent increase” value [1] was 0%, the “Maltose, percent increase” value [1] was 8% and the “Sucrose, percent increase” value [1] was −18%. The “Total Sugars, percent increase” value [1] was 10%, the “Zeaxanthin, percent increase” value [1] was −8% and the “antheraxanthin, percent increase” value [1] was 23%. For the same compound, the “Acid DF” value [2] was 2 % of check, the Alanine [2] was 8 % of check and the “Amino Acid” value [2] was 7 % of check. For the same compound, the Aspartic ac [2] was 6 % of check, the Cysteine [2] was 3 % of check and the Glutamic ac [2] was 6 % of check. For the same compound, the Glycine [2] was 4 % of check, the Isoleucine [2] was 10 % of check and the Leucine [2] was 8 % of check. The Lysine [2] was 10 % of check, the Methionine [2] was 8 % of check and the “Neutral DF” value [2] was 7 % of check. The Proline [2] was 6 % of check, the Protein [2] was 8 % of check and the Threonine [2] was 12 % of check. For the same compound, the Valine [2] was 9 % of check, the calcium [2] was 0 % of check and the copper [2] was 0 % of check. The iron [2] was 23 % of check, the magnesium [2] was 13 % of check and the manganese [2] was 38 % of check. For the same compound, the mon fattyac [2] was 10 % of check, the phosphorous [2] was 8 % of check and the polyfattyac [2] was 9 % of check. The potassium [2] was 6 % of check, the sat fattyac [2] was 8 % of check and the sodium [2] was 29 % of check. The tot fattyac [2] was 9 % of check and the zinc [2] was 4 % of check.

In the case of `CCOP(=S)(OCC)Oc1nc(Cl)c(Cl)cc1Cl` [chlroprifos], the “ADF, Percent Increase Over the Untreated Check (on a % dry matter basis)” value [3] is reported as 10 % check, the “Calcium, Percent Increase Over the Untreated Check (on a % dry matter basis)” value [3] is reported as 3 % check and the “Copper, Percent Increase Over the Untreated Check (on a % dry matter basis)” value [3] is reported as 8 % check. The “Iron, Percent Increase Over the Untreated Check (on a % dry matter basis)” value [3] was 57 % check, the “Magnesium, Percent Increase Over the Untreated Check (on a % dry matter basis)” value [3] was 21 % check and the “Manganese, Percent Increase Over the Untreated Check (on a % dry matter basis)” value [3] was 12 % check. The “NDF, Percent Increase Over the Untreated Check (on a % dry matter basis)” value [3] was 9 % check, the “Phosphorous, Percent Increase Over the Untreated Check (on a % dry matter basis)” value [3] was 50 % check and the “Potassium, Percent Increase Over the Untreated Check (on a % dry matter basis)” value [3] was 27 % check. For the same compound, the “Protein, Percent Increase Over the Untreated Check (on a % dry matter basis)” value [3] was 32 % check, the “Sodium, Percent Increase Over the Untreated Check (on a % dry matter basis)” value [3] was 25 % check and the “Soluble protein, Percent Increase Over the Untreated Check (on a % dry matter basis)” value [3] was 42 % check. For the same compound, the “Zinc, Percent Increase Over the Untreated Check (on a % dry matter basis)” value [3] was 46 % check.
